Measured values reported in PubChem BioAssay AID2060508 (Molecular Pharmacology Branch, DTP, NCI, 2025).

Test system: 454973-116-R2-J3-PDC spheroids, viability, % test/control
Experiment: Anticancer human tumor 454973-116-R2-J3-PDC patient-derived pancreatic carcinoma cell line growth inhibition [GQUAD]
Settings: curve of first compound; second compound 10 µM; spheroids with HUVEC and MSC
Procedure, shortened: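 Multi-cell-type spheroids of tumor cells with HUVEC and mesenchymal stem cells, treated with drug combinations. Concentrations descend in half-log steps from near clinical Cmax, or from 10 microM where Cmax is unknown; viability read-out.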
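Further: spheroids exposed to compounds for seven days.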
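Wherever viability, T/C is given: 100% = DMSO vehicle control viability.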

`COc1ncnc(C2CC2)c1-c1ncc2cnn(Cc3ccc(-c4nc(C(F)(F)F)cn4C(C)C)cc3)c2n1` + CN(C)c1ccc(Nc2c3ccc(NC(=O)CCN4CCCC4)cc3nc3cc(NC(=O)CCN4CCCC4)ccc23)cc1 and `CC(C)n1c(=O)n(C)c2cnc3cc(F)c(-c4ccc(OCCCN5CCCCC5)nc4)cc3c21` + Cc1[nH]c2ccc(F)cc2c1-c1nc2c3cccnc3c3ncccc3c2[nH]1 cannot be ordered by IC50: over 10 µM for the first, over 10 µM for the second.

Going from `O=C(NO)c1cnc(N2CCN(S(=O)(=O)c3ccc4ccccc4c3)CC2)nc1` + CN(C)c1ccc(Nc2c3ccc(NC(=O)CCN4CCCC4)cc3nc3cc(NC(=O)CCN4CCCC4)ccc23)cc1 to `CC1COCCN1c1cc(C2(S(C)(=N)=O)CC2)nc(-c2ccnc3[nH]ccc23)n1` (configuration not stated) + Cc1[nH]c2ccc(F)cc2c1-c1nc2c3cccnc3c3ncccc3c2[nH]1, the IC50 rises from 0.141 µM to 3.49 µM (25-fold).

First: CC1COCCN1c1cc(-c2ccnn2C)c2ccnc(-c3ccn[nH]3)c2n1 (configuration not stated) + Cc1[nH]c2ccc(F)cc2c1-c1nc2c3cccnc3c3ncccc3c2[nH]1
Second: COc1ccc([C@@H](O)c2cc(-c3ncnc4cc(N5CCOCC5)ccc34)c(F)cc2Cl)nn1 + Cc1[nH]c2ccc(F)cc2c1-c1nc2c3cccnc3c3ncccc3c2[nH]1
The IC50 of the first is 61-fold lower: 0.117 µM for the first, 7.1 µM for the second. The first is the more potent here.

Same assay, conditions: second compound 0.0316 µM; first compound 0.0316 µM; stronger effect = lower value; spheroids with HUVEC and MSC

First: CC(C)(O)C1CCC(Nc2ccc3ncc(-c4cccc(C(F)(F)F)c4)n3n2)CC1 (configuration not stated) + CN(C)c1ccc(Nc2c3ccc(NC(=O)CCN4CCCC4)cc3nc3cc(NC(=O)CCN4CCCC4)ccc23)cc1
Second: COc1ncnc(C2CC2)c1-c1ncc2cnn(Cc3ccc(-c4nc(C(F)(F)F)cn4C(C)C)cc3)c2n1 + CN(C)c1ccc(Nc2c3ccc(NC(=O)CCN4CCCC4)cc3nc3cc(NC(=O)CCN4CCCC4)ccc23)cc1
The viability, T/C of the first is higher: 108% for the first, 104% for the second.

Going from `O=C(NO)c1cnc(N2CCN(S(=O)(=O)c3ccc4ccccc4c3)CC2)nc1` + CN(C)c1ccc(Nc2c3ccc(NC(=O)CCN4CCCC4)cc3nc3cc(NC(=O)CCN4CCCC4)ccc23)cc1 to `CC1COCCN1c1cc(C2(S(C)(=N)=O)CC2)nc(-c2ccnc3[nH]ccc23)n1` (configuration not stated) + Cc1[nH]c2ccc(F)cc2c1-c1nc2c3cccnc3c3ncccc3c2[nH]1, the viability, T/C falls from 107% to 101%.

Compared with `CC(C)n1c(=O)n(C)c2cnc3cc(F)c(-c4ccc(OCCCN5CCCCC5)nc4)cc3c21` + Cc1[nH]c2ccc(F)cc2c1-c1nc2c3cccnc3c3ncccc3c2[nH]1, `COc1ccc([C@@H](O)c2cc(-c3ncnc4cc(N5CCOCC5)ccc34)c(F)cc2Cl)nn1` + Cc1[nH]c2ccc(F)cc2c1-c1nc2c3cccnc3c3ncccc3c2[nH]1 is higher in viability, T/C: 112% for the first, 120% for the second.

With `CC1COCCN1c1cc(-c2ccnn2C)c2ccnc(-c3ccn[nH]3)c2n1` (configuration not stated) + Cc1[nH]c2ccc(F)cc2c1-c1nc2c3cccnc3c3ncccc3c2[nH]1 the viability, T/C was 97.4%.

Same assay, conditions: second compound 0.0316 µM; first compound 0.1 µM; stronger effect = lower value; spheroids with HUVEC and MSC

First: CC(C)(O)C1CCC(Nc2ccc3ncc(-c4cccc(C(F)(F)F)c4)n3n2)CC1 (configuration not stated) + CN(C)c1ccc(Nc2c3ccc(NC(=O)CCN4CCCC4)cc3nc3cc(NC(=O)CCN4CCCC4)ccc23)cc1
Second: COc1ncnc(C2CC2)c1-c1ncc2cnn(Cc3ccc(-c4nc(C(F)(F)F)cn4C(C)C)cc3)c2n1 + CN(C)c1ccc(Nc2c3ccc(NC(=O)CCN4CCCC4)cc3nc3cc(NC(=O)CCN4CCCC4)ccc23)cc1
The viability, T/C of the first is lower: 101% for the first, 113% for the second.

First: O=C(NO)c1cnc(N2CCN(S(=O)(=O)c3ccc4ccccc4c3)CC2)nc1 + CN(C)c1ccc(Nc2c3ccc(NC(=O)CCN4CCCC4)cc3nc3cc(NC(=O)CCN4CCCC4)ccc23)cc1
Second: CC1COCCN1c1cc(C2(S(C)(=N)=O)CC2)nc(-c2ccnc3[nH]ccc23)n1 (configuration not stated) + Cc1[nH]c2ccc(F)cc2c1-c1nc2c3cccnc3c3ncccc3c2[nH]1
The viability, T/C of the first is lower: 89.7% for the first, 102% for the second.

`CC(C)n1c(=O)n(C)c2cnc3cc(F)c(-c4ccc(OCCCN5CCCCC5)nc4)cc3c21` + Cc1[nH]c2ccc(F)cc2c1-c1nc2c3cccnc3c3ncccc3c2[nH]1 and `COc1ccc([C@@H](O)c2cc(-c3ncnc4cc(N5CCOCC5)ccc34)c(F)cc2Cl)nn1` + Cc1[nH]c2ccc(F)cc2c1-c1nc2c3cccnc3c3ncccc3c2[nH]1 are the same in viability, T/C: 101% for the first, 101% for the second.

`CC1COCCN1c1cc(-c2ccnn2C)c2ccnc(-c3ccn[nH]3)c2n1` (configuration not stated) + Cc1[nH]c2ccc(F)cc2c1-c1nc2c3cccnc3c3ncccc3c2[nH]1 was tested, and the viability, T/C was 66.8%.

Same assay, conditions: second compound 0.0316 µM; first compound 0.316 µM; stronger effect = lower value; spheroids with HUVEC and MSC

Going from `CC(C)(O)C1CCC(Nc2ccc3ncc(-c4cccc(C(F)(F)F)c4)n3n2)CC1` (configuration not stated) + CN(C)c1ccc(Nc2c3ccc(NC(=O)CCN4CCCC4)cc3nc3cc(NC(=O)CCN4CCCC4)ccc23)cc1 to `COc1ncnc(C2CC2)c1-c1ncc2cnn(Cc3ccc(-c4nc(C(F)(F)F)cn4C(C)C)cc3)c2n1` + CN(C)c1ccc(Nc2c3ccc(NC(=O)CCN4CCCC4)cc3nc3cc(NC(=O)CCN4CCCC4)ccc23)cc1, the viability, T/C rises from 94.8% to 97.6%.

Compared with `O=C(NO)c1cnc(N2CCN(S(=O)(=O)c3ccc4ccccc4c3)CC2)nc1` + CN(C)c1ccc(Nc2c3ccc(NC(=O)CCN4CCCC4)cc3nc3cc(NC(=O)CCN4CCCC4)ccc23)cc1, `CC1COCCN1c1cc(C2(S(C)(=N)=O)CC2)nc(-c2ccnc3[nH]ccc23)n1` (configuration not stated) + Cc1[nH]c2ccc(F)cc2c1-c1nc2c3cccnc3c3ncccc3c2[nH]1 is higher in viability, T/C: 28.9% for the first, 121% for the second.

Compared with `CC(C)n1c(=O)n(C)c2cnc3cc(F)c(-c4ccc(OCCCN5CCCCC5)nc4)cc3c21` + Cc1[nH]c2ccc(F)cc2c1-c1nc2c3cccnc3c3ncccc3c2[nH]1, `COc1ccc([C@@H](O)c2cc(-c3ncnc4cc(N5CCOCC5)ccc34)c(F)cc2Cl)nn1` + Cc1[nH]c2ccc(F)cc2c1-c1nc2c3cccnc3c3ncccc3c2[nH]1 is higher in viability, T/C: 105% for the first, 106% for the second.

With `CC1COCCN1c1cc(-c2ccnn2C)c2ccnc(-c3ccn[nH]3)c2n1` (configuration not stated) + Cc1[nH]c2ccc(F)cc2c1-c1nc2c3cccnc3c3ncccc3c2[nH]1 the viability, T/C was 26.6%.

Same assay, conditions: second compound 0.0316 µM; first compound 1 µM; stronger effect = lower value; spheroids with HUVEC and MSC

First: CC(C)(O)C1CCC(Nc2ccc3ncc(-c4cccc(C(F)(F)F)c4)n3n2)CC1 (configuration not stated) + CN(C)c1ccc(Nc2c3ccc(NC(=O)CCN4CCCC4)cc3nc3cc(NC(=O)CCN4CCCC4)ccc23)cc1
Second: COc1ncnc(C2CC2)c1-c1ncc2cnn(Cc3ccc(-c4nc(C(F)(F)F)cn4C(C)C)cc3)c2n1 + CN(C)c1ccc(Nc2c3ccc(NC(=O)CCN4CCCC4)cc3nc3cc(NC(=O)CCN4CCCC4)ccc23)cc1
The viability, T/C of the first is lower: 77% for the first, 102% for the second.

Going from `O=C(NO)c1cnc(N2CCN(S(=O)(=O)c3ccc4ccccc4c3)CC2)nc1` + CN(C)c1ccc(Nc2c3ccc(NC(=O)CCN4CCCC4)cc3nc3cc(NC(=O)CCN4CCCC4)ccc23)cc1 to `CC1COCCN1c1cc(C2(S(C)(=N)=O)CC2)nc(-c2ccnc3[nH]ccc23)n1` (configuration not stated) + Cc1[nH]c2ccc(F)cc2c1-c1nc2c3cccnc3c3ncccc3c2[nH]1, the viability, T/C rises from 3.06% to 96.5%.

Compared with `CC(C)n1c(=O)n(C)c2cnc3cc(F)c(-c4ccc(OCCCN5CCCCC5)nc4)cc3c21` + Cc1[nH]c2ccc(F)cc2c1-c1nc2c3cccnc3c3ncccc3c2[nH]1, `COc1ccc([C@@H](O)c2cc(-c3ncnc4cc(N5CCOCC5)ccc34)c(F)cc2Cl)nn1` + Cc1[nH]c2ccc(F)cc2c1-c1nc2c3cccnc3c3ncccc3c2[nH]1 is lower in viability, T/C: 101% for the first, 87.6% for the second.

Work on `CC1COCCN1c1cc(-c2ccnn2C)c2ccnc(-c3ccn[nH]3)c2n1` (configuration not stated) + Cc1[nH]c2ccc(F)cc2c1-c1nc2c3cccnc3c3ncccc3c2[nH]1 yielded a viability, T/C of 23.2%.

Same assay, conditions: second compound 0.0316 µM; first compound 3.16 µM; stronger effect = lower value; spheroids with HUVEC and MSC

First: CC(C)(O)C1CCC(Nc2ccc3ncc(-c4cccc(C(F)(F)F)c4)n3n2)CC1 (configuration not stated) + CN(C)c1ccc(Nc2c3ccc(NC(=O)CCN4CCCC4)cc3nc3cc(NC(=O)CCN4CCCC4)ccc23)cc1
Second: COc1ncnc(C2CC2)c1-c1ncc2cnn(Cc3ccc(-c4nc(C(F)(F)F)cn4C(C)C)cc3)c2n1 + CN(C)c1ccc(Nc2c3ccc(NC(=O)CCN4CCCC4)cc3nc3cc(NC(=O)CCN4CCCC4)ccc23)cc1
The viability, T/C of the first is lower: 17.3% for the first, 99.5% for the second.

Work on `O=C(NO)c1cnc(N2CCN(S(=O)(=O)c3ccc4ccccc4c3)CC2)nc1` + CN(C)c1ccc(Nc2c3ccc(NC(=O)CCN4CCCC4)cc3nc3cc(NC(=O)CCN4CCCC4)ccc23)cc1 yielded a viability, T/C of 0.12%.
